Assay results published in article PMC9354954, “Assessing Bioavailability and Bioactivity of 4-Hydroxythiazolidine-2-Thiones, Newly Discovered Glucosinolate Degradation Products Formed During Domestic Boiling of Cabbage” (Frontiers in Nutrition, 2022).

Key:
HepG2 cells = test: Cytotoxicity, MTT assay; format: cell-based, human; conditions: up to 100 μM, 24 h
Description: (§1) To determine the cytotoxicity of allyl HTT and 4-MSOB HTT, HepG2 and Caco-2 cells were seeded in a 96-well TC-plate (standard F, sterile, from Sarsted, Nümbrecht, Germany) using a seeding density of 20,000 cells/well. After 24 h, the medium was exchanged to 200 μL pure medium or 200 μL medium containing allyl HTT or 4-MSOB HTT with concentrations in the range of 0.1–100 μM. The cells were treated for 24 h under cell culture conditions (prepared for three biological replicates, every 3 technical replicates). Cell viability was determined using the MTT assay and the neutral red uptake assay based on Schröter et al. ([27]). In the case of MTT assay, after 24 h of HTT treatment, 20 μL of MTT solution (75 mg MTT in 15 mL PBS) were added, and cells were incubated for 60 min under cell culture conditions. Afterward, the supernatant was removed and 100 μL of lysis buffer (5% formic acid in isopropanol) was added and the plate was shaken for 10 min at 300 rpm before measuring the absorption at 550 ± 5 nm (reference 690 ± 5 nm) by a Tecan i-control Infinite M200 PRO plate reader (Crailsheim, Germany). In the case of the neutral red uptake assay, the supernatant was removed after 24 h HTT treatment, and 100 μL neutral red solution (40 mg neutral red in 10 mL PBS, freshly diluted 1:100 with medium and incubated for 24 h under cell culture conditions) was added. After incubation of neutral red solution for 2 h under cell culture conditions, the supernatant was removed, and cells were washed with 150 μL of PBS. After removing PBS, 150 μL desorb solution (49.5% water/49.5% ethanol/1% acetic acid) was added and the plate was shaken for 10 min at 300 rpm before measuring the absorption at 540 ± 5 nm by Tecan i-control Infinite M200 PRO plate reader. The mean ± SD is used for presenting the results of three technical replicates for each data point of the three biological replicates.

Caco-2 cells = test: Cytotoxicity, MTT assay; format: cell-based, human; conditions: Caco-2, MTT assay, up to 100 μM, 24 h
Description: as §1

[1] = Estimation of permeability coefficients from plot of Levin data using measured partition coefficients; conditions: for Papp: not told, estimated from plot of Levin data (ref 32) using measured octanol/water partition coefficients, read-out: estimated permeability coefficient
Source text: The log P-value is positive for compounds which are better soluble in the octanol phase, and is negative for compounds which are better soluble in the aqueous phase. To assess if the different uptake behavior of the two HTTs is based on their different polarity, the octanol/water partition coefficients of several compounds were plotted against their permeability coefficients, based on a previous report by Levin ([32]) (Supplementary Figure S5). The obtained plot was used to estimate the permeability coefficients of the two HTTs with 2 × 10^−4 cm/s for allyl HTT and 1.1 × 10^−5 cm/s for 4-MSOB HTT using the measured octanol/water partition coefficients of both compounds. The ratio of both estimated permeability coefficients was 18 and fitted very well to the measured ratios of 27-fold and 10-fold for the higher uptake of allyl HTT compared to 4-MSOB HTT in the experiments with HepG2 and Caco-2 cells. Therefore, the uptake of allyl HTT and 4-MSOB HTT in the in vitro assays can be primarily explained by simple passive diffusion through the cell membrane. Additionally, the fact that in both intestinal model experiments (transport of the analyte from the upper to the lower compartment, as well as from the lower to an upper compartment), the transport velocity was similar, and an equilibrium concentration between both compartments was reached, supporting the hypothesis of passive diffusion without the need of special transporters.
Figure S5: Plot of data reported by Levin (1980) to describe the correlation between the octanol/water partition coefficients of several compounds and their permeability coefficients. The red line and thin black lines were draw by the author and used to estimate the permeability coefficients of 3-allyl-4-hydroxythiazolidine-2-thione (allyl HTT) and 4-hydroxy-3-(4-(methylsulfinyl)butyl) thiazolidine-2-thione (4-MSOB HTT) using their measured octanol-water partition coefficients (black lines).

C[S+]([O-])CCCCN1C(=S)SCC1O (stereo not shown) [4-MSOB HTT, 4-hydroxy-3-(4-(methylsulfinyl)butyl)thiazolidine-2-thione]
effect on cell viability compared to untreated cells (HepG2 cells): did not show any effect on cell viability
effect on cell viability compared to untreated cells (Caco-2 cells): did not show any effect on cell viability
Papp [1]: 11 ×10⁻⁶ cm/s

C=CCN1C(=S)SCC1O (stereo not shown) [allyl HTT, 3-allyl-4-hydroxythiazolidine-2-thione]
effect on cell viability compared to untreated cells (HepG2 cells): did not show any effect on cell viability
effect on cell viability compared to untreated cells (Caco-2 cells): did not show any effect on cell viability
ratio of both estimated permeability coefficients ([1]; allyl HTT vs 4-MSOB HTT): 18
Papp [1]: 200 ×10⁻⁶ cm/s
